Laboratory results: patent US20150148551A1, “GENISTEIN FOR REDUCING LEVELS OF STORAGE COMPOUNDS IN THE TREATMENT AND/OR PREVENTION OF LYSOSOMAL STORAGE DISEASES (LSDS)” (3G THERAPEUTICS, INC., priority 2012, published 2015)

How the values were obtained:
CTSD = assay: DNA microarray, CTSD expression in fibroblasts exposed to genistein; assay type: cell-based, human; details: for CTSD fold change Average: 48 h vs DMSO
Experimental: (§1) The experiments were conducted to characterise the transcriptomic profile of human fibroblast cells exposed to genistein, and in particular to determine the expression of genes encoding lysosomal enzymes involved in metabolism (i.e. synthesis and degradation) of organic substances. The absence or deficiency of these enzymes' activity is responsible for occurrence of various lysosomal storage diseases (LSD) (including MPS). The tested hypothesis assumed that genistein influences the expression of many genes, among which there are genes coding for enzymes required in metabolism of compounds, which are pathologically stored in LSD. The results provide important information regarding genistein action on the molecular level within the range of gene expression modulation by this substance. The experiment was conducted in biological quintuplicates. Human dermal fibroblasts (HDFa) were exposed in vitro for 1, 24 or 48 hours to: 30, 60 or 100 μM of genistein; 0.05% DMSO (K1); or were untreated (control cells) (K2), and total RNA was isolated and analysed.
(§2) Fibroblast cells were grown in Dulbecco (DMEM) medium supplemented with 10% fetal bovine serum (FBS) with the addition of 1% antibiotics and anti-fungal agents at 37° C. in humidified atmosphere of 5% CO2, until the required confluency was obtained.
(§3) To determine the effect of tested compound on the transcriptom of the fibroblast cells, the growth medium was replaced with fresh medium, either non-supplemented (0.05% DMSO), or containing genistein (30, 60 or 100 μM, in 0.05% DMSO). The exposure was done for 1, 24 or 48 hours.
(§4) Total RNA was isolated from fibroblasts using High Pure RNA Isolation Kit according to the protocol and then it was quantitatively evaluated using Quant-It™ RiboGreen® Assay Kit.
(§5) Biotinylated cRNA was prepared using Ambion Total PrepAmp Kit for Illumina arrays.
(§6) Standard hybridization and quantitative image analysis procedures—Illumina hybridization protocol and Illumina scanning protocol, were used.
(§7) Processing of the results was done during data definition, including: background correction (using background subtraction method), normalization (using quantile normalization algorithm with Illumina GenomeStudio software package: gene expression module version 1.9.0) and summarization (using method, which sums the values of signal intensities from a set of probes).

ABCA9 = assay: DNA microarray, ABCA9 expression in fibroblasts exposed to genistein; assay type: cell-based, human; details: for ABCA9 fold change Average: 48 h vs DMSO
Experimental: as §1, §2, §3, §4, §5, §6, §7

SUMF1 = assay: DNA microarray, SUMF1 expression in fibroblasts exposed to genistein; assay type: cell-based, human; details: for SUMF1 fold change Average: 48 h vs DMSO
Experimental: as §1, §2, §3, §4, §5, §6, §7

ST3GAL2 = assay: DNA microarray, ST3GAL2 expression in fibroblasts exposed to genistein; assay type: cell-based, human
Experimental: as §1, §2, §3, §4, §5, §6, §7

[1] = humans and animals; cited from earlier work
ACP2 = assay: DNA microarray, ACP2 expression in fibroblasts exposed to genistein; assay type: cell-based, human; details: for ACP2 fold change Average: 48 h vs DMSO
Experimental: as §1, §2, §3, §4, §5, §6, §7

ST3GAL6 = assay: DNA microarray, ST3GAL6 expression in fibroblasts exposed to genistein; assay type: cell-based, human
Experimental: as §1, §2, §3, §4, §5, §6, §7

[2] = tested on: Human dermal fibroblasts (HDFa); assay: Transcriptomic profiling of fibroblasts with DNA microarrays, genes of synthesis and degradation; assay type: cell-based; details: cells cultured in the presence vs absence of genistein
Experimental: as §1, with “analysed. […]” for “analysed.”
Total RNA was isolated from fibroblasts using High Pure RNA Isolation Kit according to the protocol and then it was quantitatively evaluated using Quant-It™ RiboGreen® Assay Kit. […]
Standard hybridization and quantitative image analysis procedures—Illumina hybridization protocol and Illumina scanning protocol, were used. […]

CD164 = assay: DNA microarray, CD164 expression in fibroblasts exposed to genistein; assay type: cell-based, human
Experimental: as §1, §2, §3, §4, §5, §6, §7

For O=c1c(-c2ccc(O)cc2)coc2cc(O)cc(O)c12 [genistein, 4′,5,7-trihydroxy-3-phenylchromen-4-one], the “CTSD fold change Average 1h30/1hK1” value (CTSD; 30 μM, 1 h vs 0.05% DMSO) was 0.9734 fold change, the “CTSD fold change Average” value (CTSD; 30 μM) was 1.3322 fold change and the “CTSD fold change Average 1h60/1hK1” value (CTSD; 60 μM, 1 h vs 0.05% DMSO) was 1.119 fold change. For the same compound, the “CTSD fold change Average” value (CTSD; 60 μM) was 1.302 fold change, the “CTSD fold change Average 1h100/1hK1” value (CTSD; 100 μM, 1 h vs 0.05% DMSO) was 1.018 fold change and the “CTSD fold change Average” value (CTSD; 100 μM) was 1.939 fold change. The “ABCA9 fold change Average 1h30/1hK1” value (ABCA9; 30 μM, 1 h vs 0.05% DMSO) was 1.0096 fold change, the “ABCA9 fold change Average” value (ABCA9; 30 μM) was 1.3825 fold change and the “ABCA9 fold change Average 1h60/1hK1” value (ABCA9; 60 μM, 1 h vs 0.05% DMSO) was 1.129 fold change. The “ABCA9 fold change Average 1h100/1hK1” value (ABCA9; 100 μM, 1 h vs 0.05% DMSO) was 0.9831 fold change, the “ABCA9 fold change Average” value (ABCA9; 100 μM) was 1.635 fold change and the “SUMF1 fold change Average 1h30/1hK1” value (SUMF1; 30 μM, 1 h vs 0.05% DMSO) was 1.1314 fold change. For the same compound, the “SUMF1 fold change Average” value (SUMF1; 30 μM) was 1.2364 fold change, the “SUMF1 fold change Average 1h60/1hK1” value (SUMF1; 60 μM, 1 h vs 0.05% DMSO) was 1.158 fold change and the “SUMF1 fold change Average” value (SUMF1; 60 μM) was 1.849 fold change. For the same compound, the “SUMF1 fold change Average 1h100/1hK1” value (SUMF1; 100 μM, 1 h vs 0.05% DMSO) was 1.095 fold change, the “SUMF1 fold change Average” value (SUMF1; 100 μM) was 1.705 fold change and the “ST3GAL2 fold change Average 1h30/1hK1” value (ST3GAL2; 30 μM, 1 h vs 0.05% DMSO) was 1.155 fold change. The “ST3GAL2 fold change Average 24h30/24hK1” value (ST3GAL2; 30 μM, 24 h vs 0.05% DMSO) was 0.7505 fold change, the “ST3GAL2 fold change Average 48h30/48hK1” value (ST3GAL2; 30 μM, 48 h vs 0.05% DMSO) was 0.797 fold change and the “ST3GAL2 fold change Average 1h60/1hK1” value (ST3GAL2; 60 μM, 1 h vs 0.05% DMSO) was 1.467 fold change. For the same compound, the “ST3GAL2 fold change Average 24h60/24hK1” value (ST3GAL2; 60 μM, 24 h vs 0.05% DMSO) was 0.5068 fold change, the “ST3GAL2 fold change Average 1h100/1hK1” value (ST3GAL2; 100 μM, 1 h vs 0.05% DMSO) was 1.338 fold change and the “ST3GAL2 fold change Average 24h100/24hK1” value (ST3GAL2; 100 μM, 24 h vs 0.05% DMSO) was 0.6299 fold change. The “ST3GAL2 fold change Average 48h100/48hK1” value (ST3GAL2; 100 μM, 48 h vs 0.05% DMSO) was 0.7215 fold change, the tolerability [1] was “well-tolerated” and the “ACP2 fold change Average 1h30/1hK1” value (ACP2; 30 μM, 1 h vs 0.05% DMSO) was 1.0116 fold change. The “ACP2 fold change Average” value (ACP2; 30 μM) was 1.0451 fold change, the “ACP2 fold change Average 1h60/1hK1” value (ACP2; 60 μM, 1 h vs 0.05% DMSO) was 0.95 fold change and the “ACP2 fold change Average” value (ACP2; 60 μM) was 1.063 fold change. For the same compound, the “ACP2 fold change Average 1h100/1hK1” value (ACP2; 100 μM, 1 h vs 0.05% DMSO) was 0.9804 fold change, the “ACP2 fold change Average” value (ACP2; 100 μM) was 1.147 fold change and the “ST3GAL6 fold change Average 1h30/1hK1” value (ST3GAL6; 30 μM, 1 h vs 0.05% DMSO) was 1.234 fold change. For the same compound, the “ST3GAL6 fold change Average 24h30/24hK1” value (ST3GAL6; 30 μM, 24 h vs 0.05% DMSO) was 0.9878 fold change, the “ST3GAL6 fold change Average 48h30/48hK1” value (ST3GAL6; 30 μM, 48 h vs 0.05% DMSO) was 1.015 fold change and the “ST3GAL6 fold change Average 1h60/1hK1” value (ST3GAL6; 60 μM, 1 h vs 0.05% DMSO) was 1.072 fold change. For the same compound, the “ST3GAL6 fold change Average 1h100/1hK1” value (ST3GAL6; 100 μM, 1 h vs 0.05% DMSO) was 1.064 fold change, the “ST3GAL6 fold change Average 24h100/24hK1” value (ST3GAL6; 100 μM, 24 h vs 0.05% DMSO) was 0.7371 fold change and the “ST3GAL6 fold change Average 48h100/48hK1” value (ST3GAL6; 100 μM, 48 h vs 0.05% DMSO) was 0.7409 fold change. The “expression of genes of degradation” value [2] was “increased”, the “expression of genes of synthesis” value [2] was “reduced” and the “CD164 fold change Average 1h30/1hK1” value (CD164; 30 μM, 1 h vs 0.05% DMSO) was 1.0714 fold change. For the same compound, the “CD164 fold change Average” value (CD164; 30 μM, 48 h vs DMSO) was 0.9618 fold change, the “CD164 fold change Average 1h60/1hK1” value (CD164; 60 μM, 1 h vs 0.05% DMSO) was 1.49 fold change and the “CD164 fold change Average 1h100/1hK1” value (CD164; 100 μM, 1 h vs 0.05% DMSO) was 1.002 fold change.
